Measurements: ChEMBL document CHEMBL5113490, “Discovery of CN0 as a novel proteolysis-targeting chimera (PROTAC) degrader of PARP1 that can activate the cGAS/STING immunity pathway combined with daunorubicin” (Bioorg Med Chem, 2022)
The source made the active and inactive calls. No cut-off for these calls is given here.

Experiments:
[1] = target: T1, Protein cereblon/Poly [ADP-ribose] polymerase 1 (Homo sapiens, UniProt P09874+Q96SW2); experiment: Protac activity at CRBN/PARP1 in human MDA-MB-231 cells assessed as PARP1 degradation measured after 24 hrs; type: cell-based
Target sequence in this assay (P09874 whole entry): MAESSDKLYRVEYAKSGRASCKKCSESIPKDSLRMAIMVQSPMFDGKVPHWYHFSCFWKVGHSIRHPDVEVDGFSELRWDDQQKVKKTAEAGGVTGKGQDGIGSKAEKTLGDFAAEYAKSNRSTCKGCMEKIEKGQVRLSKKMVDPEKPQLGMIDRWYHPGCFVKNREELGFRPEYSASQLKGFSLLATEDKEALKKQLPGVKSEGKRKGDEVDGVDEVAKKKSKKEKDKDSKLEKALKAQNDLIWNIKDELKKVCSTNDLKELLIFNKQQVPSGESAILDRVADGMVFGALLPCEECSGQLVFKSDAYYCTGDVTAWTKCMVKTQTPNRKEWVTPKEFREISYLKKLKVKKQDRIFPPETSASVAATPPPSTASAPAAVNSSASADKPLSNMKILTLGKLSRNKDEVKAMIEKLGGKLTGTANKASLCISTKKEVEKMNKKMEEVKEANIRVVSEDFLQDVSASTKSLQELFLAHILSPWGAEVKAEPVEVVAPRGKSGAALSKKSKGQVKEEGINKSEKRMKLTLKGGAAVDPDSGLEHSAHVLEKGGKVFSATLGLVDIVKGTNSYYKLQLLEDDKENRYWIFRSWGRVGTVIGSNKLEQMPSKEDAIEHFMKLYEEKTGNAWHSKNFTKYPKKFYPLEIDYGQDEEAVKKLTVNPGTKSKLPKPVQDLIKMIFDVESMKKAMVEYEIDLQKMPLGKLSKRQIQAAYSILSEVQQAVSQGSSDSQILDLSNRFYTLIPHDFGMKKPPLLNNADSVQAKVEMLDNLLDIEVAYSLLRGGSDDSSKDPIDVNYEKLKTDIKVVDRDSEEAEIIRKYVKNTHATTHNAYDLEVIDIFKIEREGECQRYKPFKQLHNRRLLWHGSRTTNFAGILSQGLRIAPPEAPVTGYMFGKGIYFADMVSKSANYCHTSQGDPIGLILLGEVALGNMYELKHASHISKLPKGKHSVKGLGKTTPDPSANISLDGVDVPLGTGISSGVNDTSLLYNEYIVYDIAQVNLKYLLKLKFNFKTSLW
Target sequence in this assay (Q96SW2 whole entry): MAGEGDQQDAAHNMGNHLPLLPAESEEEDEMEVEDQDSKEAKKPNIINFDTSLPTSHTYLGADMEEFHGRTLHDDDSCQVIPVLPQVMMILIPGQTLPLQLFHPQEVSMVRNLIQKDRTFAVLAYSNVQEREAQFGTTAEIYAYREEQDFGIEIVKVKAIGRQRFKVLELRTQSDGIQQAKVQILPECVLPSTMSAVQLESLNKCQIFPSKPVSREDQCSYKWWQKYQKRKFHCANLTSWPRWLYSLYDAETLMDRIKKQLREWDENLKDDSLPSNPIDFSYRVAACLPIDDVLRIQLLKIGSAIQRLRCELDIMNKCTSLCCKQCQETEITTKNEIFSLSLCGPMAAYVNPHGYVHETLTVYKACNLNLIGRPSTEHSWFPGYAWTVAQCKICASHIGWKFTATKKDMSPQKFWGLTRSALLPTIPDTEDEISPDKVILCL

[2] = target: T1, Protein cereblon/Poly [ADP-ribose] polymerase 1; experiment: Protac activity at CRBN/PARP1 in human MDA-MB-231 cells assessed as PARP1 degradation at 10 uM measured after 4 to 48 hrs; type: cell-based; details: time 4-48 hrs
Target sequence in this assay (P09874 2-1014 limits assumed): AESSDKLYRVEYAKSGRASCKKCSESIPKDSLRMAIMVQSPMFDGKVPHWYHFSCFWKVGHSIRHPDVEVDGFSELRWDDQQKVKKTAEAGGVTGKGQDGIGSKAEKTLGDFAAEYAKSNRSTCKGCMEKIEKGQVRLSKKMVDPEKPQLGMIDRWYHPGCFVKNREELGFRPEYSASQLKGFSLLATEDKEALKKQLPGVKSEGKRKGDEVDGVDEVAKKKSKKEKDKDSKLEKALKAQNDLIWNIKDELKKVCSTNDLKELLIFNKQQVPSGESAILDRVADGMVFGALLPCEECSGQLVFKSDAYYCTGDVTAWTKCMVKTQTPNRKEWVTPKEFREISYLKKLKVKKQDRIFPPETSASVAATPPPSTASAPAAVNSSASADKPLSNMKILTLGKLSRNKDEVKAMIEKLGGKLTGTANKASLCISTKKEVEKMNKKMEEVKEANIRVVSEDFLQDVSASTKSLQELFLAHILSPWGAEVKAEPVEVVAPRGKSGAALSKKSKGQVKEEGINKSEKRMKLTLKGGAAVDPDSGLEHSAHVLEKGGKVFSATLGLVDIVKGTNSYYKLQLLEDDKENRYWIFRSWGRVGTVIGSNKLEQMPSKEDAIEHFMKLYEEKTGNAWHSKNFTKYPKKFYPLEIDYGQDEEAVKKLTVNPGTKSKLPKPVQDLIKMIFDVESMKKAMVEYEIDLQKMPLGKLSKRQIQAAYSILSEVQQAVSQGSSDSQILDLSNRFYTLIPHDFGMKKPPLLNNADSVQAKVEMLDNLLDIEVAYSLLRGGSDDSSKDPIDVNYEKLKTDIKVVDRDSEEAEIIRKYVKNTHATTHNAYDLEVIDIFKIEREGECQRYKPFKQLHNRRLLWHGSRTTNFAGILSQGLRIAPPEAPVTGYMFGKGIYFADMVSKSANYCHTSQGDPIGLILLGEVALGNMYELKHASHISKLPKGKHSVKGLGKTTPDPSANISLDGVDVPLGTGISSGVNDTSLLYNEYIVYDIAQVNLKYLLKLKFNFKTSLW
Target sequence in this assay (Q96SW2 whole entry partner): as the sequence (Q96SW2 whole entry) above

[3] = target: Protein cereblon (Homo sapiens) (UniProt Q96SW2); experiment: Binding affinity to CRBN in human MDA-MB-231 cells measured by thermal shift assay; type: cell-based
[4] = target: T1, Protein cereblon/Poly [ADP-ribose] polymerase 1; experiment: Protac activity at CRBN/PARP1 in human MDA-MB-231 cells assessed as PARP1 degradation at 10 uM measured after 3 hrs in presence of 10 uM Z-VAD-FMK; type: cell-based
Target sequence in this assay (P09874 2-1014 limits assumed): as the sequence (P09874 2-1014 limits assumed) above
Target sequence in this assay (Q96SW2 whole entry partner): as the sequence (Q96SW2 whole entry) above

MDA-MB-231 [5] = experiment: Inhibition of DNA repair in human MDA-MB-231 cells assessed as induction of gamma-H2AX level at 10 uM in presence of 0.5 uM daunorubicin measured after 2 hrs by western blot analysis; type: functional, cell-based
MDA-MB-231 [6] = experiment: Inhibition of DNA repair in human MDA-MB-231 cells assessed as induction of free cytosolic dsDNA at 5 uM in presence of 0.5 uM daunorubicin measured after 24 hrs by DAPI staining method; type: functional, cell-based
MDA-MB-231 [7] = experiment: Growth inhibition of human MDA-MB-231 cells at 10 uM; type: functional; details: read-out: GI
MDA-MB-231 [8] = experiment: Growth inhibition of human MDA-MB-231 cells at 10 uM in presence of 0.25 uM daunorubicin; type: functional; details: read-out: GI
MDA-MB-231 [9] = experiment: Growth inhibition of human MDA-MB-231 cells at 10 uM in presence of 1 uM daunorubicin; type: functional; details: read-out: GI
MDA-MB-231 [10] = experiment: Growth inhibition of human MDA-MB-231 cells at 10 uM in presence of 4 uM daunorubicin; type: functional; details: read-out: GI
MDA-MB-231 [11] = experiment: Growth inhibition of human MDA-MB-231 cells assessed as combination index at 10 uM in presence of 0.25 uM daunorubicin; type: functional
MDA-MB-231 [12] = experiment: Growth inhibition of human MDA-MB-231 cells assessed as combination index at 10 uM in presence of 1 uM daunorubicin; type: functional
MDA-MB-231 [13] = experiment: Growth inhibition of human MDA-MB-231 cells assessed as combination index at 10 uM in presence of 4 uM daunorubicin; type: functional
4T1 [14] = experiment: Growth inhibition of mouse 4T1 cells at 10 uM; type: functional; details: read-out: GI
4T1 [15] = experiment: Growth inhibition of mouse 4T1 cells at 10 uM in presence of 0.25 uM daunorubicin; type: functional; details: read-out: GI
4T1 [16] = experiment: Growth inhibition of mouse 4T1 cells at 10 uM in presence of 0.5 uM daunorubicin; type: functional; details: read-out: GI
4T1 [17] = experiment: Growth inhibition of mouse 4T1 cells at 10 uM in presence of 1 uM daunorubicin; type: functional; details: read-out: GI
4T1 [18] = experiment: Growth inhibition of mouse 4T1 cells assessed as combination index at 10 uM in presence of 0.25 uM daunorubicin; type: functional
4T1 [19] = experiment: Growth inhibition of mouse 4T1 cells assessed as combination index at 10 uM in presence of 0.5 uM daunorubicin; type: functional
4T1 [20] = experiment: Growth inhibition of mouse 4T1 cells assessed as combination index at 10 uM in presence of 1 uM daunorubicin; type: functional
[21] = Cytotoxicity against human MCF-10A cells assessed as growth inhibition at 10 uM; type: toxicity, cell-based; details: read-out: GI
[22] = Cytotoxicity against human MCF-10A cells assessed as growth inhibition at 10 uM in presence of 0.25 uM daunorubicin; type: toxicity, cell-based; details: read-out: GI
[23] = Cytotoxicity against human MCF-10A cells assessed as growth inhibition at 10 uM in presence of 0.5 uM daunorubicin; type: toxicity, cell-based; details: read-out: GI
MDA-MB-231 [24] = experiment: Activation of cGAS/STING pathway in human MDA-MB-231 cells assessed as increase in TBK1 phosphorylation at S172 residue at 10 uM in presence of 0.5 uM daunorubicin measured after 24 hrs; type: cell-based; details: filed as activator
MDA-MB-231 [25] = experiment: Activation of cGAS/STING pathway in human MDA-MB-231 cells assessed as increase in IRF3 phosphorylation at S396 residue at 10 uM in presence of 0.5 uM daunorubicin measured after 24 hrs; type: cell-based; details: filed as activator
MDA-MB-231 [26] = experiment: Activation of cGAS/STING pathway in human MDA-MB-231 cells assessed as increase in STING phosphorylation at 10 uM in presence of 0.5 uM daunorubicin measured after 24 hrs; type: cell-based; details: filed as activator
MDA-MB-231 [27] = experiment: Activation of cGAS/STING pathway in human MDA-MB-231 cells assessed as increase in P65 phosphorylation at 10 uM in presence of 0.5 uM daunorubicin measured after 24 hrs; type: cell-based; details: filed as activator
MDA-MB-231 [28] = experiment: Activation of cGAS/STING pathway in human MDA-MB-231 cells assessed as upregulation of cGAS mRNA expression at 10 uM in presence of 0.5 uM daunorubicin measured after 24 hrs; type: cell-based; details: filed as activator
MDA-MB-231 [29] = experiment: Activation of cGAS/STING pathway in human MDA-MB-231 cells assessed as upregulation of STING mRNA expression at 10 uM in presence of 0.5 uM daunorubicin measured after 24 hrs; type: cell-based; details: filed as activator
MDA-MB-231 [30] = experiment: Activation of cGAS/STING pathway in human MDA-MB-231 cells assessed as upregulation of CCL5 mRNA expression at 10 uM in presence of 0.5 uM daunorubicin measured after 24 hrs; type: cell-based; details: filed as activator
MDA-MB-231 [31] = experiment: Activation of cGAS/STING pathway in human MDA-MB-231 cells assessed as upregulation of CXCL9 mRNA expression at 10 uM in presence of 0.5 uM daunorubicin measured after 24 hrs; type: cell-based; details: filed as activator
MDA-MB-231 [32] = experiment: Activation of cGAS/STING pathway in human MDA-MB-231 cells assessed as upregulation of CXCL10 mRNA expression at 10 uM in presence of 0.5 uM daunorubicin measured after 24 hrs; type: cell-based; details: filed as activator
MDA-MB-231 [33] = experiment: Antiproliferative activity against human MDA-MB-231 cells assessed as increase in cell killing by T cells at 10 uM in presence of 0.5 uM daunorubicin measured after 24 hrs by flow cytometry analysis; type: functional, cell-based
[34] = Half-life in rat at 8 mg/kg, iv; type: ADME, organism-based; details: in vivo
[35] = Cmax in rat at 8 mg/kg, iv; type: ADME, organism-based; set-up: dose 8 mg/kg, route iv; details: in vivo
[36] = AUC (0 to t) in rat at 8 mg/kg, iv; type: ADME, organism-based; set-up: dose 8 mg/kg, route iv; details: in vivo
[37] = MRT in rat at 8 mg/kg, iv; type: ADME, organism-based; details: in vivo
4T1 [38] = experiment: In vivo protac activity at CRBN/PARP1 in mouse 4T1 cells xenografted in mouse assessed as PARP1 degradation at 25 mg/kg, ip administered once a day; type: functional, organism-based
4T1 [39] = experiment: Antitumor activity against mouse 4T1 cells allografted in immunocompetent mouse assessed as reduction in tumor volume at 25 mg/kg, ip administered once a day in presence of daunorubicin at 0.5 mg/kg, ip administered once a day; type: functional, organism-based
[40] = Toxicity in immunocompetent mouse allografted with mouse 4T1 cells assessed as effect on body weight at 25 mg/kg, ip administered once a day in presence of daunorubicin at 0.5 mg/kg, ip administered once a day; type: organism-based; details: in vivo
4T1 [41] = experiment: Antitumor activity against mouse 4T1 cells allografted in immunocompetent mouse assessed as increase in CD8-positive T cells at 25 mg/kg, ip administered once a day in presence of daunorubicin at 0.5 mg/kg, ip administered once a day; type: functional, organism-based
MDA-MB-231 [42] = experiment: Growth inhibition of human MDA-MB-231 cells at 0.25 uM; type: functional; details: read-out: GI
MDA-MB-231 [43] = experiment: Growth inhibition of human MDA-MB-231 cells at 1 uM; type: functional; details: read-out: GI
MDA-MB-231 [44] = experiment: Growth inhibition of human MDA-MB-231 cells at 4 uM; type: functional; details: read-out: GI
4T1 [45] = experiment: Growth inhibition of mouse 4T1 cells at 0.25 uM; type: functional; details: read-out: GI
4T1 [46] = experiment: Growth inhibition of mouse 4T1 cells at 0.5 uM; type: functional; details: read-out: GI
4T1 [47] = experiment: Growth inhibition of mouse 4T1 cells at 1 uM; type: functional; details: read-out: GI
[48] = Cytotoxicity against human MCF-10A cells assessed as growth inhibition at 0.25 uM; type: toxicity, cell-based; details: read-out: GI
[49] = Cytotoxicity against human MCF-10A cells assessed as growth inhibition at 0.5 uM; type: toxicity, cell-based; details: read-out: GI

Sequence of Protein cereblon (Homo sapiens) (Q96SW2 whole entry): as above

For `NC(=O)c1cccc2cn(-c3ccc(C4CCCN(c5cccc6c5C(=O)N(C5CCC(=O)NC5=O)C6=O)C4)cc3)nc12` (centres undefined), the DC50 [1] was 252 nM, the Activity [2] was “Active” and the Activity [3] was “Active”. For the same compound, the Activity [4] was “Active”, the inhibition (MDA-MB-231 [5]) was “Active” and the inhibition (MDA-MB-231 [6]) was “Active”. The inhibition of growth at 10 µM (MDA-MB-231 [7]) was 4.55%, the inhibition of growth at 10 µM (MDA-MB-231 [8]) was 22.5% and the inhibition of growth at 10 µM (MDA-MB-231 [9]) was 38.1%. The inhibition of growth at 10 µM (MDA-MB-231 [10]) was 59.8%, the CI (MDA-MB-231 [11]) was 0.21 and the CI (MDA-MB-231 [12]) was 0.06. The CI (MDA-MB-231 [13]) was 0.12, the inhibition of growth at 10 µM (4T1 [14]) was 2.71% and the inhibition of growth at 10 µM (4T1 [15]) was 65.5%. For the same compound, the inhibition of growth at 10 µM (4T1 [16]) was 70.1%, the inhibition of growth at 10 µM (4T1 [17]) was 98.2% and the CI (4T1 [18]) was 0.44. It also gave a CI (4T1 [19]) of 0.45, a CI (4T1 [20]) of 0.0001 and an inhibition at 10 µM [21] of 4.93%. The inhibition at 10 µM [22] was 35%, the inhibition at 10 µM [23] was 41.2% and the Activity (MDA-MB-231 [24]) was “Active”. For the same compound, the Activity (MDA-MB-231 [25]) was “Active”, the Activity (MDA-MB-231 [26]) was “Active” and the Activity (MDA-MB-231 [27]) was “Active”. For the same compound, the Activity (MDA-MB-231 [28]) was “Active”, the Activity (MDA-MB-231 [29]) was “Active” and the Activity (MDA-MB-231 [30]) was “Active”. For the same compound, the Activity (MDA-MB-231 [31]) was “Active”, the Activity (MDA-MB-231 [32]) was “Active” and the Activity (MDA-MB-231 [33]) was “Active”. The half-life [34] was 1.87 h, the Cmax [35] was 5770 ng/mL and the AUC(0-t) [36] was 6960 ng·h/mL. For the same compound, the MRT [37] was 2.55 h, the Activity (4T1 [38]) was “Active” and the Activity (4T1 [39]) was “Active”. For the same compound, the Activity [40] was “Non-Toxic” and the Activity (4T1 [41]) was “Active”.

`COc1cccc2c1C(=O)c1c(O)c3c(c(O)c1C2=O)C[C@@](O)(C(C)=O)C[C@@H]3O[C@H]1C[C@H](N)[C@H](O)[C@H](C)O1` [DAUNORUBICIN] gave an inhibition of growth at 0.25 µM (MDA-MB-231 [42]) of 9.76%, an inhibition of growth at 1 µM (MDA-MB-231 [43]) of 10.7% and an inhibition of growth at 4 µM (MDA-MB-231 [44]) of 36.9%. For the same compound, the inhibition of growth at 0.25 µM (4T1 [45]) was 60%, the inhibition of growth at 0.5 µM (4T1 [46]) was 63.6% and the inhibition of growth at 1 µM (4T1 [47]) was 69.8%. For the same compound, the inhibition at 0.25 µM [48] was 35% and the inhibition at 0.5 µM [49] was 46.1%.
